Experimental data from patent US10407407B2, “Benzoimidazole derivatives as PAD4 inhibitors” (GLAXOSMITHKLINE INTELLECTUAL PROPERTY DEVELOPMENT LIMITED, priority 2015, dated 2019).
Several values for one entry are separate records, joined by “and”; a condition that tells them apart may be missing. Identical values can stand only once.

Columns and labels:
[1] = biological target: T1, Recombinant human PAD4 (residues 1-663) (Homo sapiens, UniProt Q9UM07); assay: PAD4 enzyme assay (FLINT NH3 release, BAEE substrate; conditions A or B); assay type: biochemical; conditions: PAD4 enzyme assay above or similar assays; read-out: mean pIC50 (converted)
T1 construct: Recombinant human PAD4 (residues 1-663) was expressed in E. coli as an N-terminal GST-tagged fusion protein; GST (N, cleaved yes); made in house; host or cells: E. coli
T1 sequence (Q9UM07 whole entry, the tested form may be a part): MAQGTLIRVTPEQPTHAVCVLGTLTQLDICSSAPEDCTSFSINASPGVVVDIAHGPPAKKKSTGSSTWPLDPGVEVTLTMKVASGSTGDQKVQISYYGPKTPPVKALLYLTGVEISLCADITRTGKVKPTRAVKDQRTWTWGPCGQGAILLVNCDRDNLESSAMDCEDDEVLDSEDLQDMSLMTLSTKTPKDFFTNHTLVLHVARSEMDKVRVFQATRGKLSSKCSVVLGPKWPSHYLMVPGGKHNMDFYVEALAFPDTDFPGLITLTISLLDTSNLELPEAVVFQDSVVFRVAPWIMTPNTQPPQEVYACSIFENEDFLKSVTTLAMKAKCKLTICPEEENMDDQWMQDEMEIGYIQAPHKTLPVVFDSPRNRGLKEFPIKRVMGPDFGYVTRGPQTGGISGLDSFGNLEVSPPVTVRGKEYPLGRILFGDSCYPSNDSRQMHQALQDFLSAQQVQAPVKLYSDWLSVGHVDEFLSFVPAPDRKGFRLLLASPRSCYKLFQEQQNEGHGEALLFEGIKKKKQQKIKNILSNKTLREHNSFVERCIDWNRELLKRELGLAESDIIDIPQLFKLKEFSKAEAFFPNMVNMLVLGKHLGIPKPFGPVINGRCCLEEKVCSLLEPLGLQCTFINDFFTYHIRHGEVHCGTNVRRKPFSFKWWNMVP
Description: During purification of the protein, the GST tag was removed by cleavage with PreScission Protease (GE Healthcare). Activity of the final PAD4 enzyme and batch consistency was determined by employing the enzyme in the FLINT NH3 release assay in the presence of N-a-benzoyl-L-arginine ethyl ester (BAEE) substrate and measuring the levels of NH3 release at a known substrate/enzyme concentration.
(§1) 8 μl of PAD4 enzyme diluted to an assay concentration of 75 nm in assay buffer (a): (100 mM HEPES, 50 mM NaCl, 2 mM DTT and 0.6 mg/ml BSA pH 8), or in assay buffer (b): (100 mM HEPES, 50 mM NaCl, 2 mM DTT, 7.5% glycerol and 1.5 mM CHAPS pH 8), and added to wells containing 0.1 μl of various concentrations of compound or DMSO vehicle (0.8% final) in a Greiner high volume 384 well black plate. Following 30 mins pre-incubation at rt, the reaction was initiated by the addition of 4 μl of substrate buffer containing 3 mM N-a-benzoyl-L-arginine ethyl ester (BAEE), 100 mM HEPES, 50 mM NaCl, 600 uM CaCl2 (2H2O) and 2 mM DTT, pH 8.0. The reaction was stopped after 100 mins with the addition of 38 μl stop/detection buffer containing 50 mM EDTA, 2.6 mM phthalaldehyde and 2.6 mM DTT.
as §1, with “of 30 nM” for “of 75 nm”, “buffer” for “buffer (a):”, “BSA” for “BSA pH 8), or in assay buffer (b): (100 mM HEPES, 50 mM NaCl, 2 mM DTT, 7.5% glycerol and 1.5 mM CHAPS”, “after 60” for “after 100”

[2] = biological target: T2, Recombinant human PAD2 (residues 1-665) (Homo sapiens, UniProt Q9Y2J8); assay: PAD2 enzyme assay (FLINT NH3 release, BAEE substrate); assay type: biochemical; conditions: PAD2 enzyme assay above or similar assays; to assess selectivity for PAD4 over PAD2; read-out: mean pIC50 (converted)
T2 construct: Recombinant human PAD2 (residues 1-665) was expressed in baculovirus-infected Sf9 insect cells; 6His-FLAG (N); made in house; host or cells: baculovirus-infected Sf9 insect cells
T2 sequence (Q9Y2J8 whole entry, the tested form may be a part): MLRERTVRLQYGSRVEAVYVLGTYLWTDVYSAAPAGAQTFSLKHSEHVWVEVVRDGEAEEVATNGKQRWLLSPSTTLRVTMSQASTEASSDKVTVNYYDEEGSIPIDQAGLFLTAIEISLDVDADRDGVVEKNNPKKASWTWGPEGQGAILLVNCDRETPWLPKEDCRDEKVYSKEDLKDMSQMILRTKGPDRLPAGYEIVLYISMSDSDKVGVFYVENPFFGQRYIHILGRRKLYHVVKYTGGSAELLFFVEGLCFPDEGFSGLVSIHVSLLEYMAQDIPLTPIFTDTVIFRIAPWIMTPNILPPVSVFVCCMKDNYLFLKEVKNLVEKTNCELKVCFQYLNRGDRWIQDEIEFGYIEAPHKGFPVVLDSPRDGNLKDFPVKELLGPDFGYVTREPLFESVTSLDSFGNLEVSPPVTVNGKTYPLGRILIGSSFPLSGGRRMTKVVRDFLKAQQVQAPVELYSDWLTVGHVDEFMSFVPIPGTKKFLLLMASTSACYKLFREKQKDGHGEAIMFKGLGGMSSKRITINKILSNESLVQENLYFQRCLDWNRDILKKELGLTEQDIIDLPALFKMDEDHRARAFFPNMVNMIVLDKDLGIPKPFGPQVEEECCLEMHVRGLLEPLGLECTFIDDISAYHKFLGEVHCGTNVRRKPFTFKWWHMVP
Description: Activity of the final product was determined using a FLINT NH3 release assay.
8 μl of PAD2 enzyme diluted to an assay concentration of 30 nM in assay buffer (100 mM HEPES, 50 mM NaCl, 2 mM DTT, 7.5% glycerol and 1.5 mM CHAPS pH 8), and added to wells containing 0.1 μl of various concentrations of compound or DMSO vehicle (0.8% final) in a Greiner high volume 384 well black plate. […] The reaction was stopped after 90 mins with the addition of […] stop/detection buffer containing 50 mM EDTA, 2.6 mM phthalaldehyde and 2.6 mM DTT.

IC50 [1]	IC50 [2]	SMILES
	> 79400 nM	CCn1c(-c2nc3cc(C(=O)N4CCC[C@@H](N)C4)cc(NC)c3n2C)cc2ccccc21 [Example 68, (R)-(3-Aminopiperidin-1-yl)(2-(1-ethyl-1H-indol-2-yl)-1-methyl-7-(methylamino)-1H-benzo[d]imidazol-5-yl)methanone]
	> 79400 nM	CCn1c(-c2nc3cc(C(=O)N4C[C@H](C)C[C@H](N)C4)ccc3n2C)cc2ccccc21 (single isomer, unassigned) [Example 124, cis-(3-Amino-5-methylpiperidin-1-yl)(2-(1-ethyl-1H-indol-2-yl)-1-methyl-1H-benzo[d]imidazol-5-yl)methanone]
	≥ 10000 nM	CCOc1ccc2cc(-c3nc4cc(C(=O)N5CCC[C@@H](N)C5)ccc4n3C)n(CC)c2c1 [Example 32, (R)-(3-Aminopiperidin-1-yl)(2-(6-ethoxy-1-ethyl-1H-indol-2-yl)-1-methyl-1H-benzo[d]imidazol-5-yl)methanone]
	> 79400 nM	CCn1c(-c2nc3cc(C(=O)N4CCC[C@@H](N)C4)cc(N(C)C)c3n2C)cc2ccccc21 [Example 63, (R)-(3-Aminopiperidin-1-yl)(7-(dimethylamino)-2-(1-ethyl-1H-indol-2-yl)-1-methyl-1H-benzo[d]imidazol-5-yl)methanone]

The next lines start with the compound.

SMILES	IC50 [1]	IC50 [2]
Cn1c(-c2cc3ccccc3n2Cc2ccccc2)nc2cc(C(=O)N3CCC[C@@H](N)C3)ccc21 [Example 24, (3R)-1-({1-Methyl-2-[1-(phenylmethyl)-1H-indol-2-yl]-1H-benzimidazol-5-yl}carbonyl)-3-piperidinamine]	39.8 to 398 nM and 158 nM	
Cn1c(-c2cc3ccccc3n2Cc2cccnc2)nc2cc(C(=O)N3CCC[C@@H](N)C3)ccc21 [Example 15, (3R)-1-({1-Methyl-2-[1-(3-pyridinylmethyl)-1H-indol-2-yl]-1H-benzimidazol-5-yl}carbonyl)-3-piperidinamine]	39.8 to 398 nM and 398 nM	
Cn1cc(Cn2c(-c3nc4cc(C(=O)N5CCC[C@@H](N)C5)ccc4n3C)cc3ccccc32)cn1 [Example 20b, (3R)-1-[(1-Methyl-2-{1-[(1-methyl-1H-pyrazol-4-yl)methyl]-1H-indol-2-yl}-1H-benzimidazol-5-yl)carbonyl]-3-piperidinamine]	39.8 to 398 nM and 398 nM	
COc1cc(C(=O)N2CCC[C@@H](N)C2)cc2nc(-c3cc4ccccc4n3CC#N)n(C)c12 [Example 74, (R)-2-(2-(5-(3-Aminopiperidine-1-carbonyl)-7-methoxy-1-methyl-1H-benzo[d]imidazol-2-yl)-1H-indol-1-yl)acetonitrile]		≥ 10000 nM
CCn1c(-c2nc3cc(C(=O)N4C[C@@H](N)CC[C@H]4C)ccc3n2C)cc2ccccc21 (single isomer, unassigned) [Example 54, cis-(5-Amino-2-methylpiperidin-1-yl)(2-(1-ethyl-1H-indol-2-yl)-1-methyl-1H-benzo[d]imidazol-5-yl)methanone]		> 79400 nM
Cn1c(-c2cc3ccccc3n2CC2CC2)nc2cc(C(=O)N3CC[C@@H](O)[C@@H](N)C3)ccc21 [Example 65, ((3S,4R)-3-Amino-4-hydroxypiperidin-1-yl)(2-(1-(cyclopropylmethyl)-1H-indol-2-yl)-1-methyl-1H-benzo[d]imidazol-5-yl)methanone]	39.8 to 398 nM and 158 nM	> 79400 nM
